Patent publication US11178823B2, “Systems and methods for using light energy to facilitate penetration of substances in plants” (priority 2014, dated 2021)

Legend:
[1] = Uptake and phloem movement of fluorescent test substances applied onto lased citrus leaves (fluorescent microscopy); type: in vivo
Source text: To illustrate the effectiveness of the methods disclosed herein, a test substance was used to show the enhanced penetration through foliar application. Among test substances, phloem mobile compounds NBDG, a fluorescent analog of glucose (a natural sugar found in plants), and carboxyfluorescin-SE (a membrane permeable substance only fluorescent in live cells) were used in an experiment. Both substances were manually applied onto lased leaves (using a 13×39 dot indentation pattern 801) at a concentration of 5 mg/mL.
FIGS. 8A-8B were observed under fluorescent microscopy and FIG. 8B was taken 10 minutes after the application of 5 μL of NBDG.
Within 2 h, fluorescent NBDG was observed within the lateral veins of the lased leaves (shown in FIGS. 9A-9B) emerging from the application area. FIGS. 9A-9B are fluorescent micrographs of a portion of a lased citrus leaf. […] FIG. 9B is another image showing the NBDG in a minor veins 903 and main vein 905.
It should be appreciated that movement of the foliarly applied NBDG continued down the stem and towards the roots. […] FIGS. 11A-11B show bark sections of young trees. […] The distance between the lased leaves and bark segment 1103 was approximately 20 cm.

[2] = tested on: HLB bacteria; assay: PCR analysis for presence of HLB in leaves of lased and antimicrobial-treated citrus trees; type: in vivo; details: 2 fluid ounces per tree, 0-29 = HLB detected, 30 and above = no HLB detected; for Presence of HLB using PCR analysis, Sample A: lased and treated leaves; for Presence of HLB using PCR analysis, Sample B: leaves at furthest point from lased leaves, not lased or treated
Procedure: The following experimental data is provided to exemplarily illustrate various aspects of the inventive subject matter presented herein. More specifically, the data illustrates the surprising uptake of antimicrobials to effectively treat a plant. Citrus trees were tested in three groups consisting of a control group (trees 1-6), an antimicrobial plus surfactant group (trees 7-12), and an antimicrobial only group (trees 13-18). The trees in each group were lased and, in some instances, treated with an antimicrobial, and analyzed two weeks later to determine the amount of HLB present in the tree using Polymerase Chain Reaction (“PCR”) analysis. It should be noted that all the trees in this experiment had HLB at the beginning of the experiment. The antimicrobial used was oxytetracycline (FireLine™) that includes a surfactant (Tactit) for the antimicrobial plus surfactant group, and oxytetracycline without a surfactant for the antimicrobial only group. The laser parameters included a jump speed of 2000 mm/s, marking speed 850 mm/s, and marking intensity: 70%, and a pulse frequency of 15000 Hz.
The control group (trees 1-6) was lased, but not treated with any antimicrobials and/or surfactants. With the exception of one tree (tree 7) that was only lased, the antimicrobial plus surfactant group was lased and treated with an antimicrobial that comprised a surfactant. With the exception of one tree (tree 13) that was only lased, the antimicrobial only group was lased and treated with only an antimicrobial (with no surfactant). The trees in each group were lased on only one side of the tree (the side comprising the “A” samples). If an antimicrobial (with or without surfactant) was applied, such antimicrobial was applied to the side of the tree that was lased. The antimicrobials were prepared at 200 ppm, 500 ppm, 1000 ppm, 1500 ppm, and 2000 ppm in a 1 gallon volume. Only 2 fluid ounces per tree (10 fluid ounces per group of trees) was used of each concentration for this experiment.
After two weeks, leaves that were lased and, in some instances, treated with an antimicrobial were sampled and analyzed. Additionally, leaves located at the furthest point from the lased leaves (the side comprising the “B” samples), which were not directly lased and/or treated, were sampled and analyzed. Leaves were grinded and prepared for PCR analysis for detecting the presence of HLB. PCR determines if there is live HLB DNA. PCR analysis amplifies and copies small segments of DNA. It then yields enough sample DNA to run the analysis. With this experiment there are six trees per treatment group (control group, antimicrobial plus surfactant group, and antimicrobial only group). Each tree falls under two ranges for determining HLB content, values 29 and lower are considered HLB positive (greening) and values 30 and over are trees considered HLB negative (non-greening). If the analysis takes over 30 PCR cycles then it cannot find any target HLB DNA. If the analysis runs against the maximum of 40 PCR cycles then it becomes indeterminate and it could not find one copy of HLB. It should be noted that there could be numbers over “30” but still be no presence of HLB because there are only artifacts of dead HLB bacteria DNA in numbers over “30”.

[3] = 200 ppm, without surfactant, tree 14, two weeks
[4] = 500 ppm, without surfactant, tree 15, two weeks
[5] = 1000 ppm, without surfactant, tree 16, two weeks
[6] = 2000 ppm, with surfactant (Tactit), tree 12, two weeks

## O=[N+]([O-])c1ccc(N[C@H]2C(O)O[C@H](CO)[C@@H](O)[C@@H]2O)c2nonc12 (stereo partly shown) [NBDG]
[1]; applied to the surface of un-lased leaves
  Uptake into un-lased control leaf (fluorescence): no fluorescence
[1]; bark approximately 20 cm from the treated lased leaf, young trees
  Time until fluorescence observed in the phloem of bark tissue: ≤ 8 h
[1]; lased citrus leaf, 5 mg/mL, emerging from the application area
  Time until fluorescence observed within the lateral veins of the lased leaves: ≤ 2 h
[1]; lased citrus leaf, 5 mg/mL, four hours after application
  Movement in the leaf four hours after application: reached and passed the base of the petiole
[1]; lased citrus leaf, 13×39 dot indentation pattern, 5 mg/mL, 5 μL, 10 minutes after application
  Uptake into lased leaf (fluorescence): spread of fluorescence within the lased area

## CN(C)[C@@H]1C(O)=C(C(N)=O)C(=O)[C@@]2(O)C(O)=C3C(=O)c4c(O)cccc4[C@@](C)(O)[C@H]3[C@H](O)[C@@H]12 [oxytetracycline]
[2]; 200 ppm, with surfactant (Tactit), tree 8, two weeks after treatment
  Presence of HLB using PCR analysis, Sample A: 30.6
[2]; 200 ppm, with surfactant (Tactit), tree 8, two weeks
  Presence of HLB using PCR analysis, Sample B: 33.5
[2]; [3]
  Presence of HLB using PCR analysis, Sample A: 27.0
  Presence of HLB using PCR analysis, Sample B: 26.1
[2]; 500 ppm, with surfactant (Tactit), tree 9, two weeks
  Presence of HLB using PCR analysis, Sample A: 35.4
[2]; [4]
  Presence of HLB using PCR analysis, Sample A: 34.7
  Presence of HLB using PCR analysis, Sample B: 26.6
[2]; [5]
  Presence of HLB using PCR analysis, Sample A: 37.8
  Presence of HLB using PCR analysis, Sample B: 28.7
[2]; 1500 ppm, with surfactant (Tactit), tree 11, two weeks
  Presence of HLB using PCR analysis, Sample B: 36.8
[2]; 1500 ppm, without surfactant, tree 17, two weeks
  Presence of HLB using PCR analysis, Sample B: 26.2
[2]; [6]
  Presence of HLB using PCR analysis, Sample A: 37.6
  Presence of HLB using PCR analysis, Sample B: 36.1
[2]; 2000 ppm, without surfactant, tree 18, two weeks
  Presence of HLB using PCR analysis, Sample B: 27.6
